{"source": "patent US11179372B2", "about": "“Isoxazoline solution containing vitamin E for use with sanitized drinking water” (Intervet Inc., priority 2015, dated 2021)", "key": {"[1]": {"assay": "Variation of concentration of vitamin E, Fluralaner in 5 ppm hypochlorite", "format": "physicochemical", "conditions": "used at 1:10.000; for Reduction t = 0 to t = 7 in %: 5 ppm ClO-, 40° C./75% RH", "description": "While in Example 4.3 alpha-tocopherol was used in the pharmaceutical composition at 8.2% w/w, it was now tested at 80% of that value, namely at 6.6% w/w. Pharmaceutical compositions according to the invention were prepared, containing either 8.2 or 6.6% w/w alpha-tocopherol. Also one base composition was prepared without protector. These were diluted 1:10.000 to prepare medicated drinking waters with 1 μg/ml Fluralaner. Next hypochlorite was added to 5 ppm, and 20 ml samples were filled-out in 50 ml glass vials, sealed with a rubber stopper, and stored for 7 days at 40° C./75% RH. The amount of Fluralaner of the three samples was measured at t=0 and at t=7 days using UHPLC. The concentration of the vitamin E in the final test sample was 1:10,000 of 6.6 or 8.2% w/w."}, "[2]": {"test_system": "Northern fowl mite (O. sylviarum)", "assay": "Efficacy of Fluralaner in medicated drinking water against Northern fowl mite infestation of laying hens", "format": "in vivo, Ornithonyssus sylviarum", "description": "No vitamin E was present in the concentrated Fluralaner solution used to prepare the medicated drinking water. The effectivity of an oral dosing regimen of Fluralaner was tested by administering medicated drinking water (via gavage) to laying hens, in 2 repeated doses of 0.25, 0.5 or 1.0 mg/kg body weight, administered 7 days apart, and challenging them with infestation by Northern fowl mites, via source birds and natural infestation. The birds were kept in separate pens, at 11 birds per pen. The statistical analysis of results was based on mite count from each bird in the study, using pen as a random factor in the model, and mite counts were performed and recorded for individual birds. Mite vent count reduction of the treated groups compared to the control group was the primary efficacy criterion."}, "[3]": {"assay": "Accelerated stability testing of pharmaceutical composition comprising a protector", "format": "physicochemical", "conditions": "with alpha-tocopherol; up to 8 months; 2-8° C., 30° C./65% RH, 40° C./75% RH, 50° C.", "description": "Similar to the experiments described in Example 3 above, where the effect of water quality on Fluralaner-containing medicated drinking water was tested; here samples of the pharmaceutical composition were tested for an effect of the addition of a protector, on their stability during prolonged storage.\nTo test the long term stability of the pharmaceutical composition with a protector, some samples were stored under conditions of accelerated ageing. Samples of the pharmaceutical composition with or without one of the protectors, were filled out in portions of 7 gram each, in 10 ml glass vials, sealed with rubber stoppers, and stored under different conditions: 2-8° C.; 30° C./65% RH; 40° C./75% RH, and 50° C. […]"}, "[4]": {"assay": "Effect of drinking water quality on degradation of Fluralaner", "format": "physicochemical", "description": "To assess what caused the degradation of Fluralaner in dilution in drinking water, the impact of different types and qualities of drinking water was tested. This was done by incubation of samples containing 1 μg/g of Fluralaner, in water that contained different ions at increased concentrations from average normal conditions. Samples were mixed and incubated for 7 days, either at 2-8° C., or at 40° C./75% relative humidity (RH). Fluralaner contents were measured before and after incubations. Isoxazolines such as Fluralaner can be detected and quantified by fast liquid chromatography methods, using standard equipment and procedures, such as UHPLC. Standard liquids for washing and as carrier are e.g.: LC grade Acetonitrile, Methanol, Formic acid, and MiliQ™ water can be prepared in house. Fluralaner is characterised based on its UV spectrum and retention profile, and quantified in reference to dilutions of standards. LoQ=Limit of Quantitation, the lowest concentration at which the analyte can reliably be detected. For Fluralaner by UHPLC the LoQ is 100 ng/ml."}, "[5]": {"conditions": "Vitamin E 0 % w/w in pharm. comp."}, "[6]": {"conditions": "Vitamin E 6.6 % w/w in pharm. comp."}, "[7]": {"conditions": "Vitamin E 8.2 % w/w in pharm. comp."}, "[8]": {"conditions": "1 μg/g Fluralaner in Al^3+ water at 1 mg/l"}, "[9]": {"conditions": "1 μg/g Fluralaner in ClO^- water at 0.5 ppm"}, "[10]": {"conditions": "1 μg/g Fluralaner in ClO^- water at 5 ppm"}, "[11]": {"conditions": "1 μg/g Fluralaner in ClO^- water at 50 ppm"}, "[12]": {"conditions": "1 μg/g Fluralaner in ClO^- water at 150 ppm"}, "[13]": {"conditions": "1 μg/g Fluralaner in ClO^- water at 250 ppm"}, "[14]": {"conditions": "1 μg/g Fluralaner in Cl^- water at 300 mg/l"}, "[15]": {"conditions": "1 μg/g Fluralaner in Cu^2+ water at 10 mg/l"}, "[16]": {"conditions": "1 μg/g Fluralaner in Fe^3+ water at 1 mg/l"}, "[17]": {"conditions": "1 μg/g Fluralaner in Hard water/high pH (500 mg CaCl2•2H2O/l; pH 8.1)"}, "[18]": {"conditions": "1 μg/g Fluralaner in K^+ water at 300 mg/l"}, "[19]": {"conditions": "1 μg/g Fluralaner in NO3^- water at 100 mg/l"}, "[20]": {"conditions": "1 μg/g Fluralaner in Na^+ water at 300 mg/l"}, "[21]": {"conditions": "1 μg/g Fluralaner in PO4^- water at 100 mg/l"}, "[22]": {"conditions": "1 μg/g Fluralaner in Purified water"}, "[23]": {"conditions": "1 μg/g Fluralaner in Soft water/low pH (30 mg CaCl2•2H2O/l; pH 6.2)"}, "[24]": {"conditions": "1 μg/g Fluralaner in Water at pH = 4"}, "[25]": {"conditions": "1 μg/g Fluralaner in Water at pH = 10"}}}
{"smiles": "Cc1cc(C2=NOC(c3cc(Cl)cc(Cl)c3)(C(F)(F)F)C2)ccc1C(=O)NCC(=O)NCC(F)(F)F", "note": "(stereo not shown) [Fluralaner]", "values": [{"measurement": "Fluralaner conc. after incubation in 5 ppm ClO- at 40° C./75% RH, for t = 0 d", "setting": "[1]; [5]", "value": 0.80, "unit": "µg/mL"}, {"measurement": "Fluralaner conc. after incubation in 5 ppm ClO- at 40° C./75% RH, for t = 7 d", "setting": "[1]; [5]", "value": 0.15, "unit": "µg/mL"}, {"measurement": "Reduction t = 0 to t = 7 in %", "setting": "[1]; [5]", "value": 81, "unit": "%"}, {"measurement": "Fluralaner conc. after incubation in 5 ppm ClO- at 40° C./75% RH, for t = 0 d", "setting": "[1]; [6]", "value": 0.91, "unit": "µg/mL"}, {"measurement": "Fluralaner conc. after incubation in 5 ppm ClO- at 40° C./75% RH, for t = 7 d", "setting": "[1]; [6]", "value": 0.49, "unit": "µg/mL"}, {"measurement": "Reduction t = 0 to t = 7 in %", "setting": "[1]; [6]", "value": 46, "unit": "%"}, {"measurement": "Fluralaner conc. after incubation in 5 ppm ClO- at 40° C./75% RH, for t = 0 d", "setting": "[1]; [7]", "value": 0.90, "unit": "µg/mL"}, {"measurement": "Fluralaner conc. after incubation in 5 ppm ClO- at 40° C./75% RH, for t = 7 d", "setting": "[1]; [7]", "value": 0.49, "unit": "µg/mL"}, {"measurement": "Reduction t = 0 to t = 7 in %", "setting": "[1]; [7]", "value": 46, "unit": "%"}, {"measurement": "Duration of efficacy after first treatment administration", "setting": "[2]; 0.25 mg/kg BW dose group (2 doses, 7 days apart)", "value": "up to 19 days"}, {"measurement": "Duration of efficacy after first treatment administration", "setting": "[2]; 0.5 mg/kg BW dose group (2 doses, 7 days apart)", "value": "≤ 22", "unit": "days"}, {"measurement": "Duration of efficacy after first treatment administration", "setting": "[2]; 1.0 mg/kg BW dose group (2 doses, 7 days apart)", "value": "≤ 22", "unit": "days"}, {"measurement": "Efficacy against O. sylviarum", "setting": "[2]; 2 single doses of 0.25, 0.5, or 1 mg/kg BW, 7 days apart, oral", "value": "significant efficacy"}, {"measurement": "Reductions in mite vent counts, onset", "setting": "[2]; all treated groups, beginning at day 1", "value": "statistically significant reductions"}, {"measurement": "Efficacy against Northern fowl mites (reduction in mite vent count)", "setting": "[2]; all treated groups, for at least 19 days, untreated source birds in same pen", "value": "> 90", "unit": "%"}, {"measurement": "Level of Fluralaner in pharmaceutical composition on storage", "setting": "[3]", "value": "no significant reduction"}, {"measurement": "Fluralaner content after 7 days at 2-8° C.", "setting": "[4]; [8]", "value": 0.99, "unit": "µg/g"}, {"measurement": "Fluralaner content after 7 days at 40° C./75% RH", "setting": "[4]; [8]", "value": 1.01, "unit": "µg/g"}, {"measurement": "Fluralaner content after 7 days at 2-8° C.", "setting": "[4]; [9]", "value": 0.99, "unit": "µg/g"}, {"measurement": "Fluralaner content after 7 days at 40° C./75% RH", "setting": "[4]; [9]", "value": 0.82, "unit": "µg/g"}, {"measurement": "Fluralaner content after 7 days at 2-8° C.", "setting": "[4]; [10]", "value": "<LOQ"}, {"measurement": "Fluralaner content after 7 days at 40° C./75% RH", "setting": "[4]; [10]", "value": "<LOQ"}, {"measurement": "Fluralaner content after 7 days at 2-8° C.", "setting": "[4]; [11]", "value": "<LOQ"}, {"measurement": "Fluralaner content after 7 days at 40° C./75% RH", "setting": "[4]; [11]", "value": "<LOQ"}, {"measurement": "Fluralaner content after 7 days at 2-8° C.", "setting": "[4]; [12]", "value": "<LOQ"}, {"measurement": "Fluralaner content after 7 days at 40° C./75% RH", "setting": "[4]; [12]", "value": "<LOQ"}, {"measurement": "Fluralaner content after 7 days at 2-8° C.", "setting": "[4]; [13]", "value": "Not detected"}, {"measurement": "Fluralaner content after 7 days at 40° C./75% RH", "setting": "[4]; [13]", "value": "Not detected"}, {"measurement": "Fluralaner content after 7 days at 2-8° C.", "setting": "[4]; [14]", "value": 0.97, "unit": "µg/g"}, {"measurement": "Fluralaner content after 7 days at 40° C./75% RH", "setting": "[4]; [14]", "value": 0.98, "unit": "µg/g"}, {"measurement": "Fluralaner content after 7 days at 2-8° C.", "setting": "[4]; [15]", "value": 0.90, "unit": "µg/g"}, {"measurement": "Fluralaner content after 7 days at 40° C./75% RH", "setting": "[4]; [15]", "value": 0.78, "unit": "µg/g"}, {"measurement": "Fluralaner content after 7 days at 2-8° C.", "setting": "[4]; [16]", "value": 0.91, "unit": "µg/g"}, {"measurement": "Fluralaner content after 7 days at 40° C./75% RH", "setting": "[4]; [16]", "value": 0.89, "unit": "µg/g"}, {"measurement": "Fluralaner content after 7 days at 2-8° C.", "setting": "[4]; [17]", "value": 0.92, "unit": "µg/g"}, {"measurement": "Fluralaner content after 7 days at 40° C./75% RH", "setting": "[4]; [17]", "value": 0.96, "unit": "µg/g"}, {"measurement": "Fluralaner content after 7 days at 2-8° C.", "setting": "[4]; [18]", "value": 0.90, "unit": "µg/g"}, {"measurement": "Fluralaner content after 7 days at 40° C./75% RH", "setting": "[4]; [18]", "value": 0.80, "unit": "µg/g"}, {"measurement": "Fluralaner content after 7 days at 2-8° C.", "setting": "[4]; [19]", "value": 0.92, "unit": "µg/g"}, {"measurement": "Fluralaner content after 7 days at 40° C./75% RH", "setting": "[4]; [19]", "value": 0.93, "unit": "µg/g"}, {"measurement": "Fluralaner content after 7 days at 2-8° C.", "setting": "[4]; [20]", "value": 0.85, "unit": "µg/g"}, {"measurement": "Fluralaner content after 7 days at 40° C./75% RH", "setting": "[4]; [20]", "value": 0.84, "unit": "µg/g"}, {"measurement": "Fluralaner content after 7 days at 2-8° C.", "setting": "[4]; [21]", "value": 1.14, "unit": "µg/g"}, {"measurement": "Fluralaner content after 7 days at 40° C./75% RH", "setting": "[4]; [21]", "value": 1.15, "unit": "µg/g"}, {"measurement": "Fluralaner content after 7 days at 2-8° C.", "setting": "[4]; [22]", "value": 0.90, "unit": "µg/g"}, {"measurement": "Fluralaner content after 7 days at 40° C./75% RH", "setting": "[4]; [22]", "value": 0.92, "unit": "µg/g"}, {"measurement": "Fluralaner content after 7 days at 2-8° C.", "setting": "[4]; [23]", "value": 0.88, "unit": "µg/g"}, {"measurement": "Fluralaner content after 7 days at 40° C./75% RH", "setting": "[4]; [23]", "value": 0.89, "unit": "µg/g"}, {"measurement": "Fluralaner content after 7 days at 2-8° C.", "setting": "[4]; [24]", "value": 1.23, "unit": "µg/g"}, {"measurement": "Fluralaner content after 7 days at 40° C./75% RH", "setting": "[4]; [24]", "value": 1.26, "unit": "µg/g"}, {"measurement": "Fluralaner content after 7 days at 2-8° C.", "setting": "[4]; [25]", "value": 0.78, "unit": "µg/g"}, {"measurement": "Fluralaner content after 7 days at 40° C./75% RH", "setting": "[4]; [25]", "value": 0.79, "unit": "µg/g"}]}
